# Reference: US9718788B2, “Heteroaryl compounds useful as inhibitors of E1 activating enzymes” (MILLENNIUM PHARMACEUTICALS, INC., priority 2006, dated 2017)
# Target: T1, recombinant human NAE enzyme (Homo sapiens, UniProt Q8TBC4)
# T1 construct: His (N); made in house; host or cells: Sf9 insect cells (baculovirus, Bac-to-Bac)
# T1 sequence (Q8TBC4 1-463): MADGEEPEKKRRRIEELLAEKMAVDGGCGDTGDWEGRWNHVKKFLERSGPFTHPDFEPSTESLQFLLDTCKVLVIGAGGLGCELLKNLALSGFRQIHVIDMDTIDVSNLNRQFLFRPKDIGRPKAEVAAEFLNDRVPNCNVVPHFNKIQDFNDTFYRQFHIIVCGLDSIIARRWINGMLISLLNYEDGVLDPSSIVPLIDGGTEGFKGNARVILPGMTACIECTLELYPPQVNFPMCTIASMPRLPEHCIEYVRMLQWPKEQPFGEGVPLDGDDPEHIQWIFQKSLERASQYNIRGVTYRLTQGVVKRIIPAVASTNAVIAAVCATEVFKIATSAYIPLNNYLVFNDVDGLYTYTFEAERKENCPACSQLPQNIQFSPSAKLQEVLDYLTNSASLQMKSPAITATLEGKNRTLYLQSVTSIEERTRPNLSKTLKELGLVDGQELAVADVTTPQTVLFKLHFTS
# T1 sequence (Q13564 1-534 partner): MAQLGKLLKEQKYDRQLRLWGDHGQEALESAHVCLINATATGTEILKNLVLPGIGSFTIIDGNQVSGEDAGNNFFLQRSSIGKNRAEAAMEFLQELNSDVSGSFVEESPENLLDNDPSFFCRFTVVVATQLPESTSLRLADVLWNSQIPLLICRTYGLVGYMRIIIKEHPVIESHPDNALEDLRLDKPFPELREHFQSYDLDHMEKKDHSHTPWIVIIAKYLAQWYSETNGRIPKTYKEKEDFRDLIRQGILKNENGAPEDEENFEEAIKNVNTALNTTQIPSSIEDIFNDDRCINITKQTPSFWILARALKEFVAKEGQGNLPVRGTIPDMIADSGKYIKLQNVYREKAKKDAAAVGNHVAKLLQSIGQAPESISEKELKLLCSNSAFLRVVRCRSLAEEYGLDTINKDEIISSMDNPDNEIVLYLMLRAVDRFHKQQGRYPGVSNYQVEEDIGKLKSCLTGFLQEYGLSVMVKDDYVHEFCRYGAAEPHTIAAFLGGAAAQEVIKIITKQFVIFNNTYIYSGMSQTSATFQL
# Assay: Nedd8-Activating Enzyme (NAE) HTRF Assay
# Format: biochemical
# Details: 20 μM ATP
# Outline: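 Recombinant human NAE (NAEα/His-NAEβ from Sf9 cells) at 0.20 nM with 20 μM ATP, 0.01 μM Ubc12-GST and 0.075 μM Nedd8-Flag in HEPES pH 7.5, 105 min at 24° C. EDTA stop; Eu-anti-FLAG/APC-anti-GST HTRF read after 1 h.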
IC50 (bound given in nM),IC50 (bound given in μM),Structure (SMILES)
≤ 500 nM,,"NS(=O)(=O)OC[C@@H]1C[C@@H](Oc2ncnc3nc(-c4cncc5ccccc45)[nH]c23)C[C@@H]1O [Compound I-112, {(1S,2S,4R)-2-hydroxy-4-[(8-isoquinolin-4-yl-7H-purin-6-yl)oxy]cyclopentyl}methyl sulfamate]"
> 500 nM,< 10000 nM,"NS(=O)(=O)OC[C@H]1C[C@@H](Nc2nc(N[C@H]3CCc4ccccc43)ncc2F)[C@H](O)[C@@H]1O [Compound I-113, [(1R,2R,3S,4R)-4-({2-[(1S)-2,3-dihydro-1H-inden-1-ylamino]-5-fluoropyrimidin-4-yl}-amino)-2,3-dihydroxycyclopentyl]methyl sulfamate]"
> 500 nM,< 10000 nM,"NS(=O)(=O)OC[C@@H]1C[C@@H](Oc2cc(-c3ccccc3)ncn2)C[C@@H]1O [Compound I-114, {(1S,2S,4R)-2-hydroxy-4-[(6-phenylpyrimidin-4-yl)oxy]cyclopentyl}methyl sulfamate]"
≤ 500 nM,,"CO[C@H]1Cc2ccccc2[C@H]1Nc1cc(O[C@@H]2C[C@@H](COS(N)(=O)=O)[C@@H](O)C2)ncn1 [Compound I-115, {(1S,2S,4R)-2-hydroxy-4-[(6-{[(1R,2S)-2-methoxy-2,3-dihydro-1H-inden-1-yl]amino}pyrimidin-4-yl)oxy]cyclopentyl}methyl sulfamate]"
≤ 500 nM,,"NS(=O)(=O)OC[C@@H]1C[C@@H](Nc2ncnc3nc(-c4cccc5c4OCC5)[nH]c23)C[C@@H]1O [Compound I-117, ((1S,2S,4R)-4-{[8-(2,3-dihydro-1-benzofuran-7-yl)-7H-purin-6-yl]amino}-2-hydroxycyclopentyl)methyl sulfamate]"
≤ 500 nM,,"NS(=O)(=O)OC[C@H]1C[C@@H](Nc2cc(Nc3cccc4c3CCCC4)ncn2)[C@H](O)[C@@H]1O [Compound I-118, ((1R,2R,3S,4R)-2,3-dihydroxy-4-{[6-(5,6,7,8-tetrahydronaphthalen-1-ylamino)pyrimidin-4-yl]amino}cyclopentyl)methyl sulfamate]"
> 500 nM,< 10000 nM,"NS(=O)(=O)OC[C@@H]1C[C@@H](Oc2cc(OCc3cccc4ccccc34)ncn2)C[C@@H]1O [Compound I-119, ((1S,2S,4R)-2-hydroxy-4-{[6-(1-naphthylmethoxy)pyrimidin-4-yl]oxy}cyclopentyl)methyl sulfamate]"
> 500 nM,< 10000 nM,"NS(=O)(=O)OC[C@@H]1C[C@@H](Oc2cc(N3Cc4ccccc4C3)ncn2)C[C@@H]1O [Compound I-120, ((1S,2S,4R)-4-{[6-(1,3-dihydro-2H-isoindol-2-yl)pyrimidin-4-yl]oxy}-2-hydroxycyclopentyl)methyl sulfamate]"
≤ 500 nM,,"NS(=O)(=O)OC[C@@H]1C[C@@H](Nc2ncnc3[nH]c(C4CCCc5ccccc54)nc23)C[C@@H]1O (stereo partly drawn) [Compound I-121, ((1S,2S,4R)-2-hydroxy-4-{[8-(1,2,3,4-tetrahydronaphthalen-1-yl)-9H-purin-6-yl]amino}cyclopentyl)methyl sulfamate]"
≤ 500 nM,,"NS(=O)(=O)OC[C@@H]1C[C@@H](Nc2ncnc3[nH]c(-c4ccccc4C(F)(F)F)nc23)C[C@@H]1O [Compound I-122, [(1S,2S,4R)-2-hydroxy-4-({8-[2-(trifluoromethyl)phenyl]-9H-purin-6-yl}amino)cyclopentyl]methyl sulfamate]"
> 500 nM,< 10000 nM,"CN(c1ncnc2c1nc(-c1ccccc1)n2C)[C@@H]1C[C@@H](COS(N)(=O)=O)[C@@H](O)C1 [Compound I-123, {(1S,2S,4R)-2-hydroxy-4-[methyl(9-methyl-8-phenyl-9H-purin-6-yl)amino]cyclopentyl}-methyl sulfamate]"
≤ 500 nM,,"CC1(C)C[C@H](Nc2cc(O[C@@H]3C[C@@H](COS(N)(=O)=O)[C@@H](O)C3)ncn2)c2ccccc21 [Compound I-124, {(1S,2S,4R)-4-[(6-{[(1S)-3,3-dimethyl-2,3-dihydro-1H-inden-1-yl]amino}pyrimidin-4-yl)oxy]-2-hydroxycyclopentyl}methyl sulfamate]"
≤ 500 nM,,"CO[C@H]1Cc2ccccc2[C@H]1Nc1ncnc(N[C@@H]2C[C@@H](COS(N)(=O)=O)[C@@H](O)C2)n1 [Compound I-125, {(1S,2S,4R)-2-hydroxy-4-[(4-{[(1R,2S)-2-methoxy-2,3-dihydro-1H-inden-1-yl]amino}-1,3,5-triazin-2-yl)amino]cyclopentyl}methyl sulfamate]"
≤ 500 nM,,"NS(=O)(=O)OC[C@@H]1C[C@@H](Nc2ncnc3[nH]c(-c4cccc5c4CCCC5)nc23)C[C@@H]1O [Compound I-126, ((1S,2S,4R)-2-hydroxy-4-{[8-(5,6,7,8-tetrahydronaphthalen-1-yl)-9H-purin-6-yl]amino}cyclopentyl)methyl sulfamate]"
> 500 nM,< 10000 nM,"NS(=O)(=O)OC[C@@H]1C[C@@H](Oc2cc(NC3CCCC3)ncn2)C[C@@H]1O [Compound I-127, ((1S,2S,4R)-4-{[6-(cyclopentylamino)pyrimidin-4-yl]oxy}-2-hydroxycyclopentyl)methyl sulfamate]"
≤ 500 nM,,"NS(=O)(=O)OC[C@@H]1C[C@@H](Nc2ncnc3[nH]c(C4CCCCC4)nc23)C[C@@H]1O [Compound I-128, {(1S,2S,4R)-4-[(8-cyclohexyl-9H-purin-6-yl)amino]-2-hydroxycyclopentyl}methyl sulfamate]"
≤ 500 nM,,"NS(=O)(=O)OC[C@@H]1C[C@@H](Oc2ncnc3nc(-c4cnn(Cc5ccccc5)c4)[nH]c23)C[C@@H]1O [Compound I-129, ((1S,2S,4R)-4-{[8-(1-benzyl-1H-pyrazol-4-yl)-7H-purin-6-yl]oxy}-2-hydroxycyclopentyl)methyl sulfamate]"
≤ 500 nM,,"Cn1c(-c2ccccc2)nc2c(N[C@@H]3C[C@@H](COS(N)(=O)=O)[C@@H](O)C3)ncnc21 [Compound I-130, {(1S,2S,4R)-2-hydroxy-4-[(9-methyl-8-phenyl-9H-purin-6-yl)amino]cyclopentyl}methyl sulfamate]"
≤ 500 nM,,"CC(C)(C)c1nc2c(N[C@@H]3C[C@@H](COS(N)(=O)=O)[C@@H](O)C3)ncnc2[nH]1 [Compound I-131, {(1S,2S,4R)-4-[(8-tert-butyl-9H-purin-6-yl)amino]-2-hydroxycyclopentyl}methyl sulfamate]"
> 500 nM,< 10000 nM,"NS(=O)(=O)OC[C@@H]1C[C@@H](Oc2cc(Cc3ccccc3)ncn2)C[C@@H]1O [Compound I-132, {(1S,2S,4R)-4-[(6-benzylpyrimidin-4-yl)oxy]-2-hydroxycyclopentyl}methyl sulfamate]"
≤ 500 nM,,"COc1ccccc1-c1nc2c(N[C@@H]3C[C@@H](COS(N)(=O)=O)[C@@H](O)C3)ncnc2[nH]1 [Compound I-133, ((1S,2S,4R)-2-hydroxy-4-{[8-(2-methoxyphenyl)-9H-purin-6-yl]amino}cyclopentyl)methyl sulfamate]"
≤ 500 nM,,"CC1(C)C[C@H](Nc2ncnc(N[C@@H]3C[C@@H](COS(N)(=O)=O)[C@@H](O)C3)n2)c2ccccc21 [Compound I-134, {(1S,2S,4R)-4-[(4-{[(1S)-3,3-dimethyl-2,3-dihydro-1H-inden-1-yl]amino}-1,3,5-triazin-2-yl)amino]-2-hydroxycyclopentyl}methyl sulfamate]"
≤ 500 nM,,"Cc1cccc(Sc2nc3ncnc(O[C@@H]4C[C@@H](COS(N)(=O)=O)[C@@H](O)C4)c3[nH]2)c1 [Compound I-136, [(1S,2S,4R)-2-hydroxy-4-({8-[(3-methylphenyl)sulfanyl]-7H-purin-6-yl}oxy)cyclopentyl]methyl sulfamate]"
≤ 500 nM,,"CN(C)c1ccccc1-c1nc2c(N[C@@H]3C[C@@H](COS(N)(=O)=O)[C@@H](O)C3)ncnc2[nH]1 [Compound I-137, [(1S,2S,4R)-4-({8-[2-(dimethylamino)phenyl]-9H-purin-6-yl}amino)-2-hydroxycyclopentyl]methyl sulfamate]"
> 500 nM,< 10000 nM,"OC[C@@H]1C[C@@H](Nc2ncnc3[nH]c(-c4cccc5c4OCCO5)nc23)C[C@@H]1O [Compound I-138, (1S,2S,4R)-4-{[8-(2,3-dihydro-1,4-benzodioxin-5-yl)-9H-purin-6-yl]amino}-2-(hydroxymethyl)cyclopentanol]"
≤ 500 nM,,"NS(=O)(=O)OC[C@@H]1C[C@@H](Oc2ncnc3nc(-c4ccc(N5CCCC5)c5ccccc45)[nH]c23)C[C@@H]1O [Compound I-139, ((1S,2S,4R)-2-hydroxy-4-{[8-(4-pyrrolidin-1-yl-1-naphthyl)-7H-purin-6-yl]oxy}cyclopentyl)methyl sulfamate]"
